Source: patent US20240254082A1, “Substituted Isoindoline-1, 3-diketone PDE4 Inhibitor and Pharmaceutical Application Thereof” (SUZHOU INTRAGRAND PHARMA CO., LTD, priority 2021, published 2024)

Tests used:
Type in all cases: biochemical
PDE4B2 = molecular target: T1, PDE4B2 (Homo sapiens, UniProt Q07343); experiment: Inhibition assay of PDE4B2 enzyme (FP kit)
T1 construct: purchased BPS 60343
Method: 4. Inhibition assay of PDE4B2 enzyme:
(§1) Materials and Instruments:
(§2) FAM substrate: 25 μL of a FAM substrate stock solution was added into 2500 μL of PDE assay buffer. 25 μL of the diluted substrate was added to each reaction well.
(§3) 5 μL of the compound stock solution was added to 45 μL of DMSO to prepare a 1 mM diluent. 5 μL of the 1 mM diluent was added to 45 μL of PDE assay buffer to prepare a gradient dilution starting point. Then, according to the method of adding 5 μL of the previous concentration solution to 15 μL of PDE assay buffer, gradient dilution was carried out for 9 times to prepare compound working solutions with 10 concentrations. The working solutions were added to compound wells at 5 μL/well.
(§4) PDE4B2: First, a PDE4B2 stock solution was diluted by 100 times to a concentration of 5.2 ng/μL, 3.2 μL of the diluent was added to 2200 μL of PDE assay buffer, and the mixture was added to all compound wells and positive control wells at 20 μL/well. 20 μL of PDE assay buffer was added to substrate control wells.
Binding solution: 95 μL of binder was added into 9.5 mL of binder diluent, and then mixed well. The obtained mixture was added to all wells at 100 μL/well.
(§5) FPsub=Substrate control FP.

PDE4C1 = molecular target: T2, PDE4C1 (Homo sapiens, UniProt Q08493); experiment: Inhibition assay of PDE4C1 enzyme (FP kit)
T2 construct: purchased BPS 60384
Method: 5. Inhibition assay of PDE4C1 enzyme:
as §1
FAM substrate: 12.5 μL of a FAM substrate stock solution was added into 1250 μL of PDE assay buffer. 12.5 μL of the diluted substrate was added to each reaction well.
as §3, with “at 2.5” for “at 5”
as §4, with “PDE4C1:” for “PDE4B2:”, “PDE4C1” for “PDE4B2”, “3.2” for “5.2”, “13.75” for “3.2”, “1100” for “2200”, “10” for “20”
Binding solution: 50 μL of binder was added into 5 mL of binder diluent, and then mixed well. The obtained mixture was added to all wells at 50 μL/well.
as §5

PDE4A1 = molecular target: T3, PDE4A1 (Homo sapiens, UniProt P27815); experiment: Inhibition assay of PDE4A1 enzyme (FP kit)
T3 construct: purchased BPS 60340
T3 sequence (P27815 1-647 isoform P27815-4): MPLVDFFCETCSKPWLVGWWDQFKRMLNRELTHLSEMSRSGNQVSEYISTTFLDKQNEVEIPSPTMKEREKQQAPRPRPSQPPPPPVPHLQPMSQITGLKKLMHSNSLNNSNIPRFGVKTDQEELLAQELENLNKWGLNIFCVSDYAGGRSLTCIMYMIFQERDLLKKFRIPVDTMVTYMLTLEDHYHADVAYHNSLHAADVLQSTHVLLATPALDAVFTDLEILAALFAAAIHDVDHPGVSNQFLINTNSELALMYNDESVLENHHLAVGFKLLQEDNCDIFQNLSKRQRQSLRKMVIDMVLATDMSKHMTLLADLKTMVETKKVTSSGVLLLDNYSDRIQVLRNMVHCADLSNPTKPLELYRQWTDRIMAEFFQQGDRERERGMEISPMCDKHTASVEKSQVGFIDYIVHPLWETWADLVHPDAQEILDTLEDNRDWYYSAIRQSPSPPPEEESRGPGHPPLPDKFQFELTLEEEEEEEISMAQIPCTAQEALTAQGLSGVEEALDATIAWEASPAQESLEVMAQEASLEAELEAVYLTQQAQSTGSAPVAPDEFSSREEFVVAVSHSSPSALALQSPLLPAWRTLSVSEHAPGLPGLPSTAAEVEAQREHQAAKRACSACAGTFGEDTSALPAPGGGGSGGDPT
Method: 3. Inhibition assay of PDE4A1 enzyme:
as §1, §2, §3
as §4, with “PDE4A1:” for “PDE4B2:”, “PDE4A1” for “PDE4B2”, “4.9” for “5.2”, “1.8” for “3.2”
Binding solution: 95 μL of binding buffer was added into 9.5 mL of binder diluent, and then mixed well. The obtained mixture was added to all wells at 100 μL/well.
as §5

PDE4D3 = PDE4D3 (Homo sapiens, UniProt Q08499); experiment: Inhibition assay of PDE4D3 enzyme (TR-FRET kit)
PDE4D3, sequence (Q08499 1-673 isoform Q08499-2): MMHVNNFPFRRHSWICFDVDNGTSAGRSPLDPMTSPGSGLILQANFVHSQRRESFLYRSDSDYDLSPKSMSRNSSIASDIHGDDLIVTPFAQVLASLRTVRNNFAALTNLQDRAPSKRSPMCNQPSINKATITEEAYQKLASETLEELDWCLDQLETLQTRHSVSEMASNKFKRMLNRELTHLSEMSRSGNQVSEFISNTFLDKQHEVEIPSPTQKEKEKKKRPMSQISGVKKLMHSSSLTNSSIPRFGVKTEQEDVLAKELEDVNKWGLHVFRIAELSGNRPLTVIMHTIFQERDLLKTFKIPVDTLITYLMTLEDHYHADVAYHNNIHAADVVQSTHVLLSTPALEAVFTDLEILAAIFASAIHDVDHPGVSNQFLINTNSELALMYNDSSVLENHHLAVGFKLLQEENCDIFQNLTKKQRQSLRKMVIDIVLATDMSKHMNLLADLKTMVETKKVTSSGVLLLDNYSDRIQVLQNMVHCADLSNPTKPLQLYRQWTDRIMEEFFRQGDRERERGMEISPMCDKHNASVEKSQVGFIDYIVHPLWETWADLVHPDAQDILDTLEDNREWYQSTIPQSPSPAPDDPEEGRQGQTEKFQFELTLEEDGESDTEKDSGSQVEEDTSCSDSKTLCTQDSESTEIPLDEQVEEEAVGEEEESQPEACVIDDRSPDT
Method: 2. Inhibition assay of PDE4D3 enzyme:
as §1
FAM substrate: A stock solution of 20 μM FAM substrate was diluted to 200 nM with PDE assay buffer. 12.5 μL of the diluted substrate was added to each reaction well.
as §3, with “at 2.5” for “at 5”
PDE4D3: 0.054 μL of a PDE4D3 recombinase stock solution was added to 1500 μL of PDE buffer, and the mixture was added to all compound wells and positive control wells at 10 μL/well. 10 μL of PDE assay buffer was added to substrate control wells.
Binding solution: 3750 μL of binding buffer A and 3750 μL of binding buffer B were mixed well. Then, 150 μL of a binder was added into the mixture and mixed well. 7.5 μL of a Tb donor was added and mixed well. The obtained mixture was added to all wells at 50 μL/well.
S520=Read value of sample 520 nm
S490=Read value of sample 490 nm
Tb520=Read value of Tb only 520 nm
Tb490=Read value of Tb only 490 nm
FRETp=Positive control FRET
FRETsub=Substrate control FRET.

PDE5A1 = PDE5A1 (Homo sapiens, UniProt O76074); experiment: Selective inhibitory activity assay, PDE5A1; settings: read-out: Inhibition rate (%) of PDE5A1
Method: (§6) 7. Selective inhibitory activity assay for PDE1, 2, 3, 5, 7, 10 and 11 enzymes
(§7) The selective specificity of compounds for PDE4 was assessed by assaying single concentrations of the compounds. For example, PDE1a enzyme, PDElc enzyme, PDE2a enzyme, PDE3a enzyme, PDE3b enzyme, PDE5a1 enzyme, PDE7a enzyme, PDE7b enzyme, PDE10a1 enzyme and PDE11a4 enzyme were tested. The selective inhibitory effects of different compounds on the enzymatic activities of PDEIC, PDE2A, PDE3B, PDE5A1, PDE7A, and PDE10A1 at concentrations of 10 μM and 1 μM, respectively, are shown in the table below: […]

PDE3B = PDE3B (Homo sapiens, UniProt Q13370); experiment: Selective inhibitory activity assay, PDE3B; settings: read-out: Inhibition rate (%) of PDE3B
Method: as §6, §7

PDE10A1 = PDE10A1 (Homo sapiens, UniProt Q9Y233); experiment: Selective inhibitory activity assay, PDE10A1; settings: read-out: Inhibition rate (%) of PDE10A1
PDE10A1, sequence (Q9Y233 1-779 isoform Q9Y233-1, species assumed): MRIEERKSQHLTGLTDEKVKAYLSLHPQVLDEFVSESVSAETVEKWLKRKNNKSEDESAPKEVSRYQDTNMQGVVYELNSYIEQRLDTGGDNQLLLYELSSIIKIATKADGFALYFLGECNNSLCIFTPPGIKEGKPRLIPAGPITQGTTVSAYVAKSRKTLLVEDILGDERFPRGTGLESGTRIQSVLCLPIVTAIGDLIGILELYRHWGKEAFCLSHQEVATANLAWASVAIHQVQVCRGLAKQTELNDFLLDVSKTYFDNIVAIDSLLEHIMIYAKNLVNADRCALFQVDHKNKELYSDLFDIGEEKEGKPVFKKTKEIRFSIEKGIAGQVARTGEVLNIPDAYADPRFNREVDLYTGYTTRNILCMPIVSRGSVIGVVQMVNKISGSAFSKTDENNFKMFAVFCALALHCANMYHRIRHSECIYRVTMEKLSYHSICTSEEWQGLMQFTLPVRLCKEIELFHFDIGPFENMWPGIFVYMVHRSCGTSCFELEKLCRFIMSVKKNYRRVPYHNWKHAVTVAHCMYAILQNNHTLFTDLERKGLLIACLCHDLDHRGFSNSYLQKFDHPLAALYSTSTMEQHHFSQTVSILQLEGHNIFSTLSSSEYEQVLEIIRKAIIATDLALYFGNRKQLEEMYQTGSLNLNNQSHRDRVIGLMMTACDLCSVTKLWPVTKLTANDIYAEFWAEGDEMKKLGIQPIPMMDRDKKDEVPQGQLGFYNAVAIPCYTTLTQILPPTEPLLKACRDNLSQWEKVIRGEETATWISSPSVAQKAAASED
Method: as §6, §7

PDE7A = PDE7A (Homo sapiens, UniProt Q13946); experiment: Selective inhibitory activity assay, PDE7A; settings: read-out: Inhibition rate (%) of PDE7A
PDE7A, sequence (Q13946 whole entry, species assumed): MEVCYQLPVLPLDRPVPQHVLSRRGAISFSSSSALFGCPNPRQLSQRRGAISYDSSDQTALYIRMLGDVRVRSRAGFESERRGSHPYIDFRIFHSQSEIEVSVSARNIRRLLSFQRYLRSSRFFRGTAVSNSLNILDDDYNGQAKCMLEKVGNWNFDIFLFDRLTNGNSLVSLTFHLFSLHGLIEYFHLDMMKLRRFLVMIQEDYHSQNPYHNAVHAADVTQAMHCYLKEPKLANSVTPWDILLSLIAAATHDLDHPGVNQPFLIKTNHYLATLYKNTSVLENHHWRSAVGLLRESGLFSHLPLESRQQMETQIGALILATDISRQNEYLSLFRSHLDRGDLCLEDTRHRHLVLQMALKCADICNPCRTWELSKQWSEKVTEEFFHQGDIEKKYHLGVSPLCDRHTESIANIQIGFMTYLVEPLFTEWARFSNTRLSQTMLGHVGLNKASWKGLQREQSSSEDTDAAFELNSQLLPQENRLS
Method: as §6, §7

PDE1C = PDE1C (Homo sapiens, UniProt Q14123); experiment: Selective inhibitory activity assay, PDE1C; settings: read-out: Inhibition rate (%) of PDE1C
PDE1C, sequence (Q14123 whole entry, species assumed): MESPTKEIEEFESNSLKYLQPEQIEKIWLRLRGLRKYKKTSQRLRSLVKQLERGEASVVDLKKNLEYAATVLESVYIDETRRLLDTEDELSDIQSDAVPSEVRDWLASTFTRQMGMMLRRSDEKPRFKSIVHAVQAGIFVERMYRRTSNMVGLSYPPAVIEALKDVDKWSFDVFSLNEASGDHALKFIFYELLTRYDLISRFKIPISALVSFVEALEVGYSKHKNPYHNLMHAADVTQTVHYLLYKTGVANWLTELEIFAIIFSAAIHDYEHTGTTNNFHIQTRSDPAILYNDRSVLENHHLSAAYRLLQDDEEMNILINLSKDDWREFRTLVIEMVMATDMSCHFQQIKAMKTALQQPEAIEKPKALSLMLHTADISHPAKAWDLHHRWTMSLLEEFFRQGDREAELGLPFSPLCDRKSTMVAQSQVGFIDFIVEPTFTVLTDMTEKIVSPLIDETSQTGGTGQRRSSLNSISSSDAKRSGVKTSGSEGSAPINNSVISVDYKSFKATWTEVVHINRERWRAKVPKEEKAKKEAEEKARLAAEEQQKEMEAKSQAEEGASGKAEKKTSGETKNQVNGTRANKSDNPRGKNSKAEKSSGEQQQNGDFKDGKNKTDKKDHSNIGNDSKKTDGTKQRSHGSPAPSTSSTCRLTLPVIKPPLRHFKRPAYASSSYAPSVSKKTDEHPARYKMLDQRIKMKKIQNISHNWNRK
Method: as §6, §7

PDE2A = PDE2A (Homo sapiens, UniProt O00408); experiment: Selective inhibitory activity assay, PDE2A; settings: read-out: Inhibition rate (%) of PDE2A
PDE2A, sequence (O00408 whole entry, species assumed): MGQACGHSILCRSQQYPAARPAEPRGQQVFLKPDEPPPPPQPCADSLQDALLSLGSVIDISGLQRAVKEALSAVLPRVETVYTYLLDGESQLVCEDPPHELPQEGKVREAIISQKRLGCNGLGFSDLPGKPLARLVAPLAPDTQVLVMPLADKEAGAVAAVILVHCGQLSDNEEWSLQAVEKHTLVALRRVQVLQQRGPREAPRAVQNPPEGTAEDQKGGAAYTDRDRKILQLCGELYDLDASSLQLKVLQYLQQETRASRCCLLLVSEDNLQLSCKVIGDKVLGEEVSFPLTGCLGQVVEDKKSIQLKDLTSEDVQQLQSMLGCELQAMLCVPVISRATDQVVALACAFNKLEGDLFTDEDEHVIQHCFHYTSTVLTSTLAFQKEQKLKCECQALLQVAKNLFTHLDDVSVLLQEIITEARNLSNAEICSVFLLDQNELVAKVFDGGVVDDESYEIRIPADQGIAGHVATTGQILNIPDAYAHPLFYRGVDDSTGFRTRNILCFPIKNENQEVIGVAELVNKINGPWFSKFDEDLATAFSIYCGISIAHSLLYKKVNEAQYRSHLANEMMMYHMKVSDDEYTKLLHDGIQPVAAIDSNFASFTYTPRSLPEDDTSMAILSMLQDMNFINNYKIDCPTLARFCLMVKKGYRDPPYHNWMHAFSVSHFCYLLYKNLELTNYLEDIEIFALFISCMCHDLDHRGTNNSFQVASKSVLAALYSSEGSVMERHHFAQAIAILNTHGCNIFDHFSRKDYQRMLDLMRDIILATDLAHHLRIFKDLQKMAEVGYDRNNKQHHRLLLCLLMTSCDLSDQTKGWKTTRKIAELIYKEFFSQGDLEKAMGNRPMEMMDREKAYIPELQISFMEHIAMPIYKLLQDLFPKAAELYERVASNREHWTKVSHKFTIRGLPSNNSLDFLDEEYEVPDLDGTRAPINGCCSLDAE
Method: as §6, §7

T1 sequence (Q07343 1-564 isoform Q07343-2): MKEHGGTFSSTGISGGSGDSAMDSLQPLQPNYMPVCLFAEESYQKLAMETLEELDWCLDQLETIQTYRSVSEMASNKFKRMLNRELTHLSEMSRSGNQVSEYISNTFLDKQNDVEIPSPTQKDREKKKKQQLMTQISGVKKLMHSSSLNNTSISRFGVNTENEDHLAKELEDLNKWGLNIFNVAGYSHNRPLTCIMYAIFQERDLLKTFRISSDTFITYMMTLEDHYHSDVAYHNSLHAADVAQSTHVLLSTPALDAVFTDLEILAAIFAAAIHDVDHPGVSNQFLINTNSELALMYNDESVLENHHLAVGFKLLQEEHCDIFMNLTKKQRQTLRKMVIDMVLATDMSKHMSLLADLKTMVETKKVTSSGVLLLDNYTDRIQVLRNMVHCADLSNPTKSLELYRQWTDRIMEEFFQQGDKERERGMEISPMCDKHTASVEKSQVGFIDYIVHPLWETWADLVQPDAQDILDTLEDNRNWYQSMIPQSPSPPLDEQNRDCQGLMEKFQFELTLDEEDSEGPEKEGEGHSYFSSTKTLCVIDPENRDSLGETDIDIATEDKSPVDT

Structure (SMILES)	IC50 (PDE4B2) [µM]	IC50 (PDE4C1) [µM]	IC50 (PDE4A1) [µM]	IC50 (PDE4D3) [µM]	inhibition at 1 µM (PDE5A1) [%]	inhibition at 10 µM (PDE5A1) [%]	inhibition at 1 µM (PDE3B) [%]	inhibition at 10 µM (PDE3B) [%]	inhibition at 1 µM (PDE10A1) [%]	inhibition at 10 µM (PDE10A1) [%]	inhibition at 1 µM (PDE7A) [%]	inhibition at 10 µM (PDE7A) [%]	inhibition at 1 µM (PDE1C) [%]	inhibition at 10 µM (PDE1C) [%]	inhibition at 1 µM (PDE2A) [%]	inhibition at 10 µM (PDE2A) [%]
CCCCC(O)c1ccc(NC(C)=O)c2c1C(=O)N([C@H](CS(C)(=O)=O)c1ccc(OC)c(OCC)c1)C2=O (mixture of isomers) [Example 55]	< 0.1	< 0.2	< 0.1	< 0.005	–	–	–	–	–	–	–	–	–	–	–	–
[2H]c1c([2H])c(NC(C)=O)c2c(c1CCCCC)C(=O)N([C@H](CS(C)(=O)=O)c1ccc(OC)c(OCC)c1)C2=O [Example 33]	< 0.1	< 0.2	< 0.1	< 0.005	–	–	–	–	–	–	–	–	–	–	–	–
CCCCCc1ccc(NC(=O)CCCCl)c2c1C(=O)N([C@H](CS(C)(=O)=O)c1ccc(OC)c(OCC)c1)C2=O [Example 5, (S)-2-[1-(3-ethoxy-4-methoxyphenyl)-2-alkylsulfonylethyl]-4-(γ-chlorobutyramido)-7-pentyl isoindoline-1,3-diketone]	< 0.1	0.2 to 0.5	< 0.1	0.01 to 0.05	0.66	8.39	0.06	-0.69	2.21	5.46	0	1.94	8.26	30.8	0.83	9.01
CCCCCc1ccc(NC(=O)CCl)c2c1C(=O)N([C@H](CS(C)(=O)=O)c1ccc(OC)c(OCC)c1)C2=O [Example 25, (S)-2-[1-(3-ethoxy-4-methoxyphenyl)-2-alkylsulfonylethyl]-4-(chloroacetamido)-7-pentyl isoindoline-1,3-diketone]	–	–	–	0.01 to 0.05	0	8.17	0	0.19	3.02	11.1	4.98	24.6	3.89	33.8	20.4	13.4
CCCC#Cc1ccc(NC(C)=O)c2c1C(=O)N([C@H](CS(C)(=O)=O)c1ccc(OC)c(OCC)c1)C2=O [Example 7]	–	–	–	0.01 to 0.05	0	-2.87	1.81	0.06	0	1.3	3.87	15.5	6.8	26.5	0.08	2.65
[2H]C([2H])(CCCC)c1ccc(NC(C)=O)c2c1C(=O)N([C@H](CS(C)(=O)=O)c1ccc(OC)c(OCC)c1)C2=O [Example 32]	< 0.1	< 0.2	< 0.1	< 0.005	–	–	–	–	–	–	–	–	–	–	–	–
CCCCCc1ccc(NC(=O)CF)c2c1C(=O)N([C@H](CS(C)(=O)=O)c1ccc(OC)c(OCC)c1)C2=O [Example 28, (S)-2-[1-(3-ethoxy-4-methoxyphenyl)-2-alkylsulfonylethyl]-4-fluoroacetamido-7-pentyl isoindoline-1,3-diketone]	–	–	–	0.005 to 0.01	0	4.16	3.69	6.44	29.1	0.04	0.55	10.5	1.46	24.8	0	5.83
CCCCc1ccc(NC(=O)CCCCl)c2c1C(=O)N([C@H](CS(C)(=O)=O)c1ccc(OC)c(OCC)c1)C2=O [Example 27, (S)-2-[1-(3-ethoxy-4-methoxyphenyl)-2-alkylsulfonylethyl]-4-(γ-chlorobutyramido)-7-butyl isoindoline-1,3-diketone]	–	–	–	0.01 to 0.05	0	8.14	0	-1.31	11.9	1.01	2.21	14.7	12.1	67.5	0	8.1
C=CC(=O)Nc1ccc(CCCCC)c2c1C(=O)N([C@H](CS(C)(=O)=O)c1ccc(OC)c(OCC)c1)C2=O [Example 29, (S)-2-[1-(3-ethoxy-4-methoxyphenyl)-2-alkylsulfonylethyl]-4-acrylamido-7-pentyl isoindoline-1,3-diketone]	–	–	–	0.005 to 0.01	5.72	13	0	-1.94	0	16.1	17.4	19.9	4.13	26	7.19	15.8
CCCCCc1ccc(NC(=O)CCCl)c2c1C(=O)N([C@H](CS(C)(=O)=O)c1ccc(OC)c(OCC)c1)C2=O [Example 24]	–	–	–	0.01 to 0.05	0	11.5	0	-0.81	6.04	11.4	0	4.15	3.89	34.5	0	7.79
CCCCC(=O)c1ccc(NC(C)=O)c2c1C(=O)N([C@H](CS(C)(=O)=O)c1ccc(OC)c(OCC)c1)C2=O [Example 56]	< 0.1	0.2 to 0.5	< 0.1	0.01 to 0.05	–	–	–	–	–	–	–	–	–	–	–	–
